Results taken from US5395947A, “Platinum(II) complex and processes for preparing the same” (Sunkyong Industries, Ltd., priority 1991, dated 1995).

Legend:
[1] = Test for water solubility; type: physicochemical; details: 20° C.
Description: 3. Test for water solubility
A standard plot of UV absorbance(220 nm) vs. concentration was made; and employed to determine water-solubility.
The mixture was then passed through a 0.45 micron disposable membrane filter before dilution and UV measurement.

ICR mice = experiment: Acute toxicity test; type: in vivo; design: Lethality: unit not given here; details: for Lethality: 10080 min
In short: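 Male and female 7-week-old ICR mice, 6 per group, dosed intraperitoneally. Signs and survival followed for 7 days, with autopsy of animals that died.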

murine leukemia L1210 = experiment: Antitumor activity test on murine leukemia L1210 in vivo; design: species or system male BDF1 mice; details: days 1, 5, 9
In short: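 Intraperitoneal L1210 model: 1×10^6 cells inoculated i.p. into 6-week-old male BDF1 mice (21±3 g) on day 0, seven per group. Compounds in 0.5% CMC given i.p. on days 1, 5 and 9; vehicle-only controls. T/C % from mean survival time of treated over control.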

Test for nephrotoxicity = type: in vivo, male ICR mice; details: 18.8 mg/kg i.p. once
Method: 4. Test for nephrotoxicity
The compounds of the present invention were dissolved or suspended in 0.5% CMC solution(in water) and were administered intraperitoneally one time to 8-week-old male ICR mice weighing 30±3 g. Each treatment and control groups consisted of six mice.
The administration amount of the test compound was 1.5 times the optimum dose obtained in Table 2, or more. On days 1, 4 and 8 after administration, their blood was collected under ether anesthesia for measurement of blood urea nitrogen concentration (BUN value) and creatinine concentration.
A pair of kidneys were taken and, after immediate weighing, were stored in a 10% neutral buffered formalin solution. The body weight ratio shown in Table 5 is a ratio of the body weight measured on days 1, 4 and 8 from the administration of the compound to the body weight measured on the administration day.

[2] = test system: murine leukemia L1210 cells; experiment: Growth inhibition test on cultured murine leukemia L1210 cells; type: cell-based; details: 48 hours, 37° C., Trypan blue viability
In short: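 L1210 cells (1×10^5) exposed to graded compound concentrations in RPMI 1640 with 10% fetal calf serum, 37° C, 5% CO2, 48 h. Viability by 0.17% Trypan blue staining, relative to untreated control cells.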

human cancers = details: testicular, ovarian, bladder, head and neck cancer; cited from earlier work

## CCC1O[C@H](CN)[C@@H](CN)O1.O=C1C[O][Pt][O]1 [Example 6, (glycolato-O,O')[(4R,5R)-4,5-bis(aminomethyl)-2-ethyl-1,3-dioxolane]platinum(II)]
[1]
  Solubility in water: > 50 mg/mL
ICR mice; female, 25.0 mg/kg i.p.
  Number of dead mice for 7 days: 0/6
  Number of dead mice, 1st day: 0/6
ICR mice; female, 32.5 mg/kg i.p.
  Number of dead mice for 7 days: 1/6
  Number of dead mice, 1st day: 0/6
  Number of dead mice, 3rd day: 1/6
  Lethality: 16.7
ICR mice; female, 42.3 mg/kg i.p.
  Number of dead mice for 7 days: 3/6
  Number of dead mice, 1st day: 0/6
  Number of dead mice, 3rd day: 1/6
  Number of dead mice, 4th day: 1/5
  Number of dead mice, 5th day: 1/4
  Lethality: 50.0
ICR mice; female, 55.0 mg/kg i.p.
  Number of dead mice for 7 days: 5/6
  Number of dead mice, 1st day: 0/6
  Number of dead mice, 3rd day: 4/6
  Number of dead mice, 4th day: 1/2
  Lethality: 83.3
ICR mice; female, 71.4 mg/kg i.p.
  Number of dead mice for 7 days: 6/6
  Number of dead mice, 1st day: 0/6
  Number of dead mice, 3rd day: 4/6
  Number of dead mice, 4th day: 2/2
  Lethality: 100.0
ICR mice; male, 25.0 mg/kg i.p.
  Number of dead mice for 7 days: 0/6
  Number of dead mice, 1st day: 0/6
ICR mice; male, 32.5 mg/kg i.p.
  Number of dead mice for 7 days: 0/6
  Number of dead mice, 1st day: 0/6
  Number of dead mice, 3rd day: 1/6
  Lethality: 16.7
ICR mice; male, 42.3 mg/kg i.p.
  Number of dead mice for 7 days: 4/6
  Number of dead mice, 1st day: 0/6
  Number of dead mice, 3rd day: 1/6
  Number of dead mice, 4th day: 2/5
  Number of dead mice, 5th day: 1/3
  Lethality: 66.7
ICR mice; male, 55.0 mg/kg i.p.
  Number of dead mice for 7 days: 6/6
  Number of dead mice, 1st day: 0/6
  Number of dead mice, 3rd day: 4/6
  Number of dead mice, 4th day: 1/2
  Number of dead mice, 5th day: 1/1
  Lethality: 100.0
ICR mice; male, 71.4 mg/kg i.p.
  Number of dead mice for 7 days: 6/6
  Number of dead mice, 1st day: 0/6
  Number of dead mice, 3rd day: 4/6
  Number of dead mice, 4th day: 2/2
  Lethality: 100.0
Murine leukemia L1210; 3.1 mg/kg i.p.
  T/C (%): 113%
Murine leukemia L1210; 6.2 mg/kg i.p.
  T/C (%): 162%
Murine leukemia L1210; 12.5 mg/kg i.p.
  T/C (%): 205%
Murine leukemia L1210; 25 mg/kg i.p.
  T/C (%): toxic
Murine leukemia L1210; 50 mg/kg i.p.
  T/C (%): toxic
Test for nephrotoxicity
  BUN, 1st day: 22.41 mg/100 ml
  BUN, 4th day: 22.67 mg/100 ml
  BUN, 8th day: 30.41 mg/100 ml
[2]
  IC50 (concentration required for 50% inhibition of growth): 0.22 µg/mL

## N.N.[Cl][Pt][Cl] [cisplatin, cis-dichlorodiammineplatinum(II), reference compound]
Human cancers
  effectiveness on human cancers: effective on a variety of human cancers
Murine leukemia L1210; 1.5 mg/kg i.p.
  T/C (%): 142%
Murine leukemia L1210; 3.1 mg/kg i.p.
  T/C (%): 167%
Murine leukemia L1210; 6.2 mg/kg i.p.
  T/C (%): 82%
Murine leukemia L1210; 12.5 mg/kg i.p.
  T/C (%): toxic
Murine leukemia L1210; 25 mg/kg i.p.
  T/C (%): toxic
[2]
  IC50 (concentration required for 50% inhibition of growth): 0.06 µg/mL
